Data published in patent US20050118290A1, “Compositions and method for treatment of steroid/nuclear receptor-mediated diseases” (University of Singapore, priority 2003, published 2005).

Target: T1, PPARγ (Homo sapiens, UniProt P37231)
T1 construct: expressed in transfected cells; host or cells: HeLa
T1 sequence (P37231 238-503 limits assumed): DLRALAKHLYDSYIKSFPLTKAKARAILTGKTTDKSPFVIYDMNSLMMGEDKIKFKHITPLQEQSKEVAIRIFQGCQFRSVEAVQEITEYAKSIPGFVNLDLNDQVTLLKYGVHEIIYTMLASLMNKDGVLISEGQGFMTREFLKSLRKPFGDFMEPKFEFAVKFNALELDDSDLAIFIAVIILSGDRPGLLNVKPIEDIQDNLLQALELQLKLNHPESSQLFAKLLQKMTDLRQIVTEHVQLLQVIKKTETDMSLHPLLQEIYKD
Test: Chimeric Gal4DBD-PPARγLBD receptor / UASg-luciferase reporter gene assay in HeLa cells
Assay type: cell-based
Text: In an example of such a reporter gene assay, a plasmid containing chimeric Ga14DBD-PPARLBD receptor cDNA was constructed by excising the ligand binding domain (LBD) of full length PPARγ and PPARα and ligating the resulting fragments in frame to the Ga14-DNA binding domain (DBD) of Saccharomyces cerevisiae in a pM vector (Clontech). Specifically, to construct Ga14DBD-PPARγLBD plasmid, pSG5 expression vector (Stratagene) containing full length PPARγ was excised with Rsa I and blunt ligated to Hind III site of pMGa14DBD expression plasmid (Clontech). To construct Ga14DBD-PPARαLBD plasmid, pSG5 expression vector (Stratagene) containing full length PPARα was excised with BstU I and BamH I and blunt-end ligated in frame to BamH I site of pMGa14DBD expression plasmid (Clontech). […] Ga14 DBD binds very strongly to the exogenous UASg promoter, thereby giving rise to a sensitive and specific assay. To measure PPARγ and PPARα agonist activity, HeLa cells were grown in 24-well microtiter plates and then transiently co-transfected with the two plasmids (chimeric PPAR receptor and UASg reporter gene) using Lipofectamine (Invitrogen). […] Concurrently, cells exposed to known PPAR ligands served as positive controls. Replicate wells, exposed to the vehicle solvent (i.e., ethanol or methanol) in which herbal extracts were dissolved, were used as negative controls. After the 40 hr incubation period, cells were rinsed with phosphate buffered saline (PBS), lysis buffer was added, and cell lysates were collected for measurement of luciferase activity using a luminometer. […] All data points are in triplicate. The data points represent the mean of triplicate wells. Luciferase activity in such an assay accurately reflects the activity of any ligands on PPARγ or PPARα.

Row | Structure (SMILES) | PPARγ activity comparable to % maximal activity of pioglitazone (30×10^−6 g/ml) [%] | maximal fold PPARγ activity (30×10^−6 g/ml) [fold] | Luciferase activity (Fold over vehicle ± SE) PPARγ/Pioglitazone (30 × 10^−6M) (calycosin 3 ×10^−6 g/mL) [Fold] | Luciferase activity (Fold over vehicle ± SE) PPARγ/Pioglitazone (30 × 10^−6M) (calycosin 10 ×10^−6 g/mL) [Fold] | Luciferase activity (Fold over vehicle ± SE) PPARγ/Pioglitazone (30 × 10^−6M) (calycosin 30 ×10^−6 g/mL) [Fold] | increase of the activity of maximal doses of PPARγ agonist (with pioglitazone 30×10^−6M) [fold] | PPARγ activity comparable to % maximal activity of pioglitazone (20×10^−6 g/m) [%] | maximal fold PPARγ activity (20×10^−6 g/m) [fold]
1 | COc1ccc(-c2coc3cc(O)ccc3c2=O)cc1O [calycosin, 3′,7-Dihydroxy-4′-methoxyisoflavone] | ~50 | 40 | 105 ± 10.7 | 162 ± 28.5 | 253 ± 30.7 | 3 |  | 
2 | O=c1c(-c2ccc(O)cc2)coc2cc(O)ccc12 [daidzein] |  |  |  |  |  |  | ~22 | 20
